US8192962B2, “Processes for detecting toxic substances” (Daikin Industries, Ltd., priority 2001, dated 2012)

System: Unknown protein yeast genes
Assay: DNA chip mRNA expression in yeast, unknown protein yeast genes (Table 1)
Type: cell-based, Saccharomyces cerevisiae S288C
Procedure, shortened: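 Ratios compare mRNA levels in stressed and control S. cerevisiae. Each toxicant was applied for two hours to log-phase cultures at 25° C. at a sub-lethal, growth-inhibiting level; fluorescent cDNA (Cy3- or Cy5-dUTP) was hybridized to a genome-wide yeast chip for over 12 h at 65° C.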

CN(C)C(=S)SSC(=S)N(C)C [(10), Tetramethylthiuram disulfide]
The level of expressed mRNA in the presence of chemical substance/The level of expressed mRNA in the absence of chemical substance (yeast gene YKL086W, incubated two hours with chemical substance): 20.5
The level of expressed mRNA in the presence of chemical substance/The level of expressed mRNA in the absence of chemical substance (yeast gene YKL151C, incubated two hours with chemical substance): 3.5
The level of expressed mRNA in the presence of chemical substance/The level of expressed mRNA in the absence of chemical substance (yeast gene YKL153W, incubated two hours with chemical substance): 1.4
The level of expressed mRNA in the presence of chemical substance/The level of expressed mRNA in the absence of chemical substance (yeast gene YKL195W, incubated two hours with chemical substance): 2.1
The level of expressed mRNA in the presence of chemical substance/The level of expressed mRNA in the absence of chemical substance (yeast gene YKR011C): 4.4
The level of expressed mRNA in the presence of chemical substance/The level of expressed mRNA in the absence of chemical substance (yeast gene YKR091W, incubated two hours with chemical substance): 1.6
The level of expressed mRNA in the presence of chemical substance/The level of expressed mRNA in the absence of chemical substance (yeast gene YLR054C, incubated two hours with chemical substance): 1.1
The level of expressed mRNA in the presence of chemical substance/The level of expressed mRNA in the absence of chemical substance (yeast gene YLR149C, incubated two hours with chemical substance): 5.2
The level of expressed mRNA in the presence of chemical substance/The level of expressed mRNA in the absence of chemical substance (yeast gene YLR152C, incubated two hours with chemical substance): 1.1
The level of expressed mRNA in the presence of chemical substance/The level of expressed mRNA in the absence of chemical substance (yeast gene YLR194C, incubated two hours with chemical substance): 1.1
The level of expressed mRNA in the presence of chemical substance/The level of expressed mRNA in the absence of chemical substance (yeast gene YLR324W, incubated two hours with chemical substance): 1.4
The level of expressed mRNA in the presence of chemical substance/The level of expressed mRNA in the absence of chemical substance (yeast gene YLR350W, incubated two hours with chemical substance): 1.4
The level of expressed mRNA in the presence of chemical substance/The level of expressed mRNA in the absence of chemical substance (yeast gene YLR387C, incubated two hours with chemical substance): 3.0
The level of expressed mRNA in the presence of chemical substance/The level of expressed mRNA in the absence of chemical substance (yeast gene YLR460C): 31.6
The level of expressed mRNA in the presence of chemical substance/The level of expressed mRNA in the absence of chemical substance (yeast gene YML117W, incubated two hours with chemical substance): 1.4
The level of expressed mRNA in the presence of chemical substance/The level of expressed mRNA in the absence of chemical substance (yeast gene YMR009W, incubated two hours with chemical substance): 2.2
The level of expressed mRNA in the presence of chemical substance/The level of expressed mRNA in the absence of chemical substance (yeast gene YMR067C, incubated two hours with chemical substance): 3.5
The level of expressed mRNA in the presence of chemical substance/The level of expressed mRNA in the absence of chemical substance (yeast gene YMR090W): 6.1
The level of expressed mRNA in the presence of chemical substance/The level of expressed mRNA in the absence of chemical substance (yeast gene YMR095C, incubated two hours with chemical substance): 1.4
The level of expressed mRNA in the presence of chemical substance/The level of expressed mRNA in the absence of chemical substance (yeast gene YMR097C, incubated two hours with chemical substance): 2.1
The level of expressed mRNA in the presence of chemical substance/The level of expressed mRNA in the absence of chemical substance (yeast gene YMR102C, incubated two hours with chemical substance): 2.6
The level of expressed mRNA in the presence of chemical substance/The level of expressed mRNA in the absence of chemical substance (yeast gene YMR107W, incubated two hours with chemical substance): 17.1
The level of expressed mRNA in the presence of chemical substance/The level of expressed mRNA in the absence of chemical substance (yeast gene YMR180C, incubated two hours with chemical substance): 2.2
The level of expressed mRNA in the presence of chemical substance/The level of expressed mRNA in the absence of chemical substance (yeast gene YMR184W, incubated two hours with chemical substance): 0.9
The level of expressed mRNA in the presence of chemical substance/The level of expressed mRNA in the absence of chemical substance (yeast gene YMR191W, incubated two hours with chemical substance): 3.5
The level of expressed mRNA in the presence of chemical substance/The level of expressed mRNA in the absence of chemical substance (yeast gene YMR295C, incubated two hours with chemical substance): 0.8
The level of expressed mRNA in the presence of chemical substance/The level of expressed mRNA in the absence of chemical substance (yeast gene YMR316W, incubated two hours with chemical substance): 3.0
The level of expressed mRNA in the presence of chemical substance/The level of expressed mRNA in the absence of chemical substance (yeast gene YNL044W, incubated two hours with chemical substance): 0.8
The level of expressed mRNA in the presence of chemical substance/The level of expressed mRNA in the absence of chemical substance (yeast gene YNL074C, incubated two hours with chemical substance): 2.0
The level of expressed mRNA in the presence of chemical substance/The level of expressed mRNA in the absence of chemical substance (yeast gene YNL092W, incubated two hours with chemical substance): 1.5
The level of expressed mRNA in the presence of chemical substance/The level of expressed mRNA in the absence of chemical substance (yeast gene YNL115C, incubated two hours with chemical substance): 1.9
The level of expressed mRNA in the presence of chemical substance/The level of expressed mRNA in the absence of chemical substance (yeast gene YNL156C, incubated two hours with chemical substance): 1.9
The level of expressed mRNA in the presence of chemical substance/The level of expressed mRNA in the absence of chemical substance (yeast gene YNL234W, incubated two hours with chemical substance): 3.3
The level of expressed mRNA in the presence of chemical substance/The level of expressed mRNA in the absence of chemical substance (yeast gene YNL281W, incubated two hours with chemical substance): 1.6
The level of expressed mRNA in the presence of chemical substance/The level of expressed mRNA in the absence of chemical substance (yeast gene YNL305C, incubated two hours with chemical substance): 2.1
The level of expressed mRNA in the presence of chemical substance/The level of expressed mRNA in the absence of chemical substance (yeast gene YNR068C, incubated two hours with chemical substance): 14.4
The level of expressed mRNA in the presence of chemical substance/The level of expressed mRNA in the absence of chemical substance (yeast gene YOL032W, incubated two hours with chemical substance): 3.0
The level of expressed mRNA in the presence of chemical substance/The level of expressed mRNA in the absence of chemical substance (yeast gene YOL036W, incubated two hours with chemical substance): 2.8
The level of expressed mRNA in the presence of chemical substance/The level of expressed mRNA in the absence of chemical substance (yeast gene YOL047C, incubated two hours with chemical substance): 2.3
The level of expressed mRNA in the presence of chemical substance/The level of expressed mRNA in the absence of chemical substance (yeast gene YOL071W, incubated two hours with chemical substance): 2.3
The level of expressed mRNA in the presence of chemical substance/The level of expressed mRNA in the absence of chemical substance (yeast gene YOL082W, incubated two hours with chemical substance): 2.0
The level of expressed mRNA in the presence of chemical substance/The level of expressed mRNA in the absence of chemical substance (yeast gene YOL083W, incubated two hours with chemical substance): 2.3
The level of expressed mRNA in the presence of chemical substance/The level of expressed mRNA in the absence of chemical substance (yeast gene YOL117W, incubated two hours with chemical substance): 4.1
The level of expressed mRNA in the presence of chemical substance/The level of expressed mRNA in the absence of chemical substance (yeast gene YOL131W, incubated two hours with chemical substance): 8.1
The level of expressed mRNA in the presence of chemical substance/The level of expressed mRNA in the absence of chemical substance (yeast gene YOL150C): 8.3
The level of expressed mRNA in the presence of chemical substance/The level of expressed mRNA in the absence of chemical substance (yeast gene YOL162W, incubated two hours with chemical substance): 6.8
The level of expressed mRNA in the presence of chemical substance/The level of expressed mRNA in the absence of chemical substance (yeast gene YOR019W, incubated two hours with chemical substance): 7.1
The level of expressed mRNA in the presence of chemical substance/The level of expressed mRNA in the absence of chemical substance (yeast gene YOR197W, incubated two hours with chemical substance): 0.7
The level of expressed mRNA in the presence of chemical substance/The level of expressed mRNA in the absence of chemical substance (yeast gene YOR338W): 3.5
The level of expressed mRNA in the presence of chemical substance/The level of expressed mRNA in the absence of chemical substance (yeast gene YPL087W, incubated two hours with chemical substance): 2.2
The level of expressed mRNA in the presence of chemical substance/The level of expressed mRNA in the absence of chemical substance (yeast gene YPL196W, incubated two hours with chemical substance): 2.8
The level of expressed mRNA in the presence of chemical substance/The level of expressed mRNA in the absence of chemical substance (yeast gene YPL206C, incubated two hours with chemical substance): 1.1
The level of expressed mRNA in the presence of chemical substance/The level of expressed mRNA in the absence of chemical substance (yeast gene YPL222W, incubated two hours with chemical substance): 3.4
The level of expressed mRNA in the presence of chemical substance/The level of expressed mRNA in the absence of chemical substance (yeast gene YPR023C, incubated two hours with chemical substance): 2.8
The level of expressed mRNA in the presence of chemical substance/The level of expressed mRNA in the absence of chemical substance (yeast gene YPR151C, incubated two hours with chemical substance): 9.5
